Data: US20160296538A1, “[…] RESPONSE BIOMARKER FOR TH-302 ANTI-CANCER THERAPY” (THRESHOLD PHARMACEUTICALS, INC., priority 2013, published 2016)
“Also recorded” adds a separate entry of the source.

Legend:
[1] = test system: carbonic anhydrase IX (CA-IX); assay: ELISA quantification of circulating plasma CA-IX in H460 xenograft animals; type: in vivo, nu/nu mice; conditions: for circulating plasma CA-IX level change: 72 hours, TH-302 150 mg/kg i.p., doxorubicin 4 mg/kg iv
Protocol: (§1) Three biomarker platforms were employed in this study: positron emission tomography (PET) imaging employing the tracer [18F]-HX4; immunohistochemistry of isolated tumor tissue employing antibodies directed against the exogenous hypoxia biomarker pimonidazole and the endogenous hypoxia biomarker carbonic anhydrase IX (CA-IX); and ELISA-based quantification of circulating plasma CA-IX.
[18F]-HX4 uptake was assessed by PET/CT imaging, and the tumor to muscle ratio (T/M) was determined. […] Blood was collected from the pre- and post-treated animals via retro-orbital venipuncture. […] For tissue biomarker analysis, tumors were harvested 72 hours after TH-302 treatment, and tumor hypoxia was assessed by semi-quantitative morphometric analysis of the PIMO immunostaining at that time.

[2] = test system: H460 non-small cell lung cancer xenograft; assay: H460 ectopic xenograft tumor growth and body weight, 150 mg/kg i.p.; type: in vivo, nu/nu mice
Source text: (§2) Proliferating cells (as measured by Ki-67 immunostaining) were decreased as well; DNA damage (as measured by γH2AX immunostaining) and necrosis (as measured by hematoxylin and eosin, H&E, staining) were increased. There was regional co-localization of pimonidazole and CA-IX, but not co-localization of pimonidazole and two other putative endogenous hypoxia markers: Glut-1 or HIF-1α.
The human H460 non-small cell lung cancer human tumor ectopic xenograft model was employed for this study. The H460 non-small cell lung cancer xenograft model was established by s.c. implantation of 1×10^6 cells in the flank of nu/nu mice. When the tumor size was 100 mm^3, a single dose of TH-302 (150 mg/kg, i.p.) or vehicle was administered.

[3] = test system: H460 xenograft tumor hypoxia (pimonidazole); assay: Pimonidazole immunostaining of H460 tumors (hypoxic fraction); type: in vivo, nu/nu mice
Source text: as §2, §1
(§3) [18F]-HX4 uptake was assessed by PET/CT imaging, and the tumor to muscle ratio (T/M) was determined. […] Blood was collected from the pre- and post-treated animals via retro-orbital venipuncture. Plasma CA-IX changed from baseline 165±13 to 104±9.3 pg/ml 72 hours after TH-302 dosing, a 37% reduction (p<0.05; n=10 per group). […] For tissue biomarker analysis, tumors were harvested 72 hours after TH-302 treatment, and tumor hypoxia was assessed by semi-quantitative morphometric analysis of the PIMO immunostaining at that time. […]

[4] = test system: H460 human non-small cell lung cancer (NSCLC) cell line; assay: H460 NSCLC xenograft tumor growth, repeated dosing; type: in vivo; conditions: H460 model; 50 mg/kg QDx5 for 2 wk, i.p.; P vs vehicle <0.001
Source text: (§4) H460 is a high hypoxic fraction tumor model, while the 786-O RCC model is well-vascularized with very low hypoxia. […] When compiling the data from both H460 and 786-O tumors, there was significant correlation between [18F]-HX4 uptake and pimonidazole-positive hypoxic fraction (HF %, R2=0.55, p=0.006).
(§5) The utility of [18F]-HX4 to serve as a predictive biomarker for TH-302 anti-cancer efficacy was shown by the significant correlation observed between the TH-302 anti-cancer efficacy in a model and its hypoxic fraction as measured by [18F]-HX4. […] TGD500 was determined as the increased time (days) for the treated tumor's size on average to reach 500 mm^3 as compared with the vehicle group. TGI was defined as (1−ΔT/ΔC)×100, where ΔT/ΔC is the ratio of the change in mean tumor volume of the treated group (ΔT) and of the control group (ΔC).

H460 xenograft tumors = assay: Tissue biomarkers in H460 tumors (Ki67, γH2AX, H&E); type: in vivo, nu/nu mice; conditions: 72 hours after 150 mg/kg i.p.
Protocol: as §2
[18F]-HX4 uptake was assessed by PET/CT imaging, and the tumor to muscle ratio (T/M) was determined. […] Blood was collected from the pre- and post-treated animals via retro-orbital venipuncture. Plasma CA-IX changed from baseline 165±13 to 104±9.3 pg/ml 72 hours after TH-302 dosing, a 37% reduction (p<0.05; n=10 per group). […] For tissue biomarker analysis, tumors were harvested 72 hours after TH-302 treatment, and tumor hypoxia was assessed by semi-quantitative morphometric analysis of the PIMO immunostaining at that time. The hypoxic fraction (HF) was 13±1.7% in the vehicle group (n=5) and 5.8±0.5% in the TH-302 treatment group (n=6, p<0.05).

[5] = test system: 786-O human renal cell carcinoma (RCC) cell line; assay: 786-O RCC xenograft tumor growth, repeated dosing; type: in vivo; conditions: 786-O model; 50 mg/kg QDx5 for 2 wk, i.p.; P vs vehicle >0.05
Source text: as §4, §5

[6] = test system: H460 xenograft tumor hypoxia ([18F]-HX4 uptake); assay: [18F]-HX4 PET/CT imaging of H460 xenograft tumors; type: in vivo, nu/nu mice
Source text: as §2, §1, §3

[7] = 72 hrs after one dose at 150 mg/kg i.p.

Compound | circulating plasma CA-IX level change [1] | tumor growth in relation to initial [18F]-HX4 uptake ([2]; 150 mg/kg i.p., Q4-5Dx3) | tumor volume change [2, 7] | TGD1000 (tumor growth delay to tumor size of 1000 mm^3) ([2]; single dose 150 mg/kg i.p.) [days] | maximum body weight loss ([2]; single dose 150 mg/kg i.p.) [%] | TGI (tumor growth inhibition) ([2]; single dose 150 mg/kg i.p. at tumor size 100 mm^3) [%] | hypoxic fraction (HF %) change, pimonidazole immunostaining ([3]; 72 hours after treatment) | hypoxic fraction (HF), PIMO immunostaining ([3]; tumors harvested 72 hours after 150 mg/kg i.p., vehicle 13±1.7%, n=6, p<0.05) [%] | TGD500 (increased time for treated tumor to reach 500 mm^3 vs vehicle) [4] [days] | TGI [4] [%] | DNA damage (γH2AX immunostaining) (H460 xenograft tumors) | Proliferating cells (Ki67 immunostaining) (H460 xenograft tumors) | necrosis (hematoxylin and eosin staining) (H460 xenograft tumors) | Plasma CA-IX ([1]; 72 hours after dosing 150 mg/kg i.p., baseline 165±13, n=10 per group) [pg/mL] | Plasma CA-IX reduction from baseline ([1]; 72 hours after dosing 150 mg/kg i.p., p<0.05) [%] | TGD500 (increased time for treated tumor to reach 500 mm^3 vs vehicle) [5] [days] | TGI [5] [%] | [18F]-HX4 tumor to muscle ratio (T/M) ([6]; 72 hours after 150 mg/kg i.p., pre-treatment 3.3±0.3, p<0.005) | [18F]-HX4 uptake change (PET-CT) [6, 7]
COc1cccc2c1C(=O)c1c(O)c3c(c(O)c1C2=O)C[C@@](O)(C(=O)CO)C[C@@H]3O[C@H]1C[C@H](N)[C@H](O)[C@H](C)O1 [doxorubicin, reference compound] | did not change circulating CA-IX levels significantly; also recorded: No change |  |  |  |  |  |  |  |  |  |  |  |  |  |  |  |  |  | 
Cn1c(COP(=O)(NCCBr)NCCBr)cnc1[N+](=O)[O-] [TH-302, (2-bromoethyl)({[(2-bromoethyl)amino][(2-nitro-3-methylimidazol-4-yl)methoxy]phosphoryl})amine] | significantly reduced | tumors with higher initial [18F]-HX4 uptake grew slower | did not change significantly | 10 | 2 | 58 | significantly reduced | 5.8±0.5 | 18 | 89 | significantly increased | decreased; also recorded: significantly reduced | significantly increased | 104 ± 9.3 | 37 | 10 | 10 | 2.1±0.2 | significantly reduced
